# How the values were obtained:
# [1] = molecular target: T1, B1R receptor of the rat (Rattus norvegicus, UniProt P97583); assay: Functional study on the bradykinin receptor 1 (B1R), FLIPR Ca2+ assay, rB1R cells; format: cell-based; conditions: CHO-K1, test substance 10 μM, agonist Des-Arg9-bradykinin 100 nM, % inhibition compared with the maximum achievable inhibition, read-out: B1R Antagonism, rat [10 μM] % Inhibition
# T1 construct: host or cells: CHO K1 cells (Chinese hamster ovary), stably transfected
# T1 sequence (P97583 1-337): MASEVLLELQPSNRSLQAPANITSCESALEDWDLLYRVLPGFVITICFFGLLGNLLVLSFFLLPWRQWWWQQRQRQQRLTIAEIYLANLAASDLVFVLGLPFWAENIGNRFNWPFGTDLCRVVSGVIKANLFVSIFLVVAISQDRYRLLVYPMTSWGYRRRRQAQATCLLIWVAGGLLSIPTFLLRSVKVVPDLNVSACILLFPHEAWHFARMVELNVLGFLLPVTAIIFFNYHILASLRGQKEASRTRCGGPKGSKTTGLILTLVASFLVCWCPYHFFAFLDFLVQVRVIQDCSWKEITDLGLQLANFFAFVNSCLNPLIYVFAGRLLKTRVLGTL
# Outline: (§1)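 Cells were dye-loaded 60 min at 37 °C, equilibrated 20 min at room temperature, then given 10 μM compound. Ten minutes later the species-matched agonist was added (0.5 nM Lys-Des-Arg9-bradykinin, human; 100 nM Des-Arg9-bradykinin, rat) and Ca2+ influx suppression expressed as % of maximum inhibition.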
# [2] = molecular target: T2, human B1R receptor (Homo sapiens, UniProt P46663); assay: Functional study on the bradykinin receptor 1 (B1R), FLIPR Ca2+ assay, hB1R cells; format: cell-based; conditions: CHO-K1, test substance 10 μM, agonist Lys-Des-Arg9-bradykinin 0.5 nM, % inhibition compared with the maximum achievable inhibition, read-out: B1R Antagonism, human [10 μM] % Inhibition
# T2 construct: host or cells: CHO K1 cells (Chinese hamster ovary), stably transfected
# T2 sequence (P46663 1-353): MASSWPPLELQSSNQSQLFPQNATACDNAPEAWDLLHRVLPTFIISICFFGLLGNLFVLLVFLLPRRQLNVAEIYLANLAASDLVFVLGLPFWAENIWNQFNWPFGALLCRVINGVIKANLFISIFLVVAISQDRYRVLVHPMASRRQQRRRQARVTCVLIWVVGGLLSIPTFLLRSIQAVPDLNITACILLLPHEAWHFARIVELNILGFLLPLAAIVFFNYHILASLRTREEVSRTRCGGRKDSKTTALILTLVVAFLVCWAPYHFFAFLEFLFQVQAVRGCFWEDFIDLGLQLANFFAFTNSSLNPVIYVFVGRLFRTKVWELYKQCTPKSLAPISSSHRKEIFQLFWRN
# Outline: as §1
SMILES,inhibition at 10 µM [1] [%],inhibition at 10 µM [2] [%]
"COc1ccc(S(=O)(=O)N2CCCCC2COCC(=O)N2CCC(CCN3CCCCC3)CC2)cc1 (stereo not drawn) [Example 52, 2-((1-(4-methoxyphenylsulfonyl)piperidin-2-yl)methoxy)-1-(4-(2-(piperidin-1-yl)-ethyl)piperidin-1-yl)ethanone]",92.8,65
"COc1ccc(N2CCN(C(=O)COCC3CCCCN3S(=O)(=O)c3c(C)cc(OC)cc3C)CC2)cc1 (stereo not drawn) [Example 290, 2-((1-(4-methoxy-2,6-dimethylphenylsulfonyl)piperidin-2-yl)methoxy)-1-(4-(4-methoxyphenyl)piperazin-1-yl)ethanone]",92.9,104
"COc1cc(C)c(S(=O)(=O)N2CCCCC2COCC(=O)N2CCC(N3CCn4ncnc4C3)CC2)c(C)c1 (stereo not drawn) [Example 145, 1-(4-(5,6-dihydro-[1,2,4]triazolo[1,5-a]pyrazin-7(8H)-yl)piperidin-1-yl)-2-((1-(4-methoxy-2,6-dimethylphenylsulfonyl)piperidin-2-yl)methoxy)ethanone]",98.6,99.4
"COc1cc(C)c(S(=O)(=O)N2CCCC2COCC(=O)NCCCN2CCCCC2)c(C)c1 (stereo not drawn) [Example 522, 2-((1-(4-methoxy-2,6-dimethylphenylsulfonyl)pyrrolidin-2-yl)methoxy)-N-(3-(piperidin-1-yl)propyl)acetamide]",98.7,54.2
"O=C(COCC1CCCCN1S(=O)(=O)c1cccc(Br)c1)N1CCC(CCN2CCCC2)CC1 (stereo not drawn) [Example 124, 2-((1-(3-bromophenylsulfonyl)piperidin-2-yl)methoxy)-1-(4-(2-(pyrrolidin-1-yl)ethyl)piperidin-1-yl)ethanone]",63.2,76.3
"COc1cc(C)c(S(=O)(=O)N2CCCC2COCC(=O)N2CCN(CCc3ccccc3)CC2)c(C)c1 (stereo not drawn) [Example 310, 2-((1-(4-methoxy-2,6-dimethylphenylsulfonyl)pyrrolidin-2-yl)methoxy)-1-(4-phenethylpiperazin-1-yl)ethanone]",102,106
"Cc1ccc(CN2CCN(C(=O)COCC3CCCN3S(=O)(=O)c3c(Cl)cccc3Cl)CC2)cc1 (stereo not drawn) [Example 360, 2-((1-(2,6-dichlorophenylsulfonyl)pyrrolidin-2-yl)methoxy)-1-(4-(4-methylbenzyl)piperazin-1-yl)ethanone]",103,96.7
"COc1cc(C)c(S(=O)(=O)N2CCCCC2COCC(=O)NCCCn2ccnc2)c(C)c1 (stereo not drawn) [Example 366, N-(3-(1H-imidazol-1-yl)propyl)-2-((1-(4-methoxy-2,6-dimethylphenylsulfonyl)piperidin-2-yl)methoxy)acetamide]",99,14.8
"COc1cc(C)c(S(=O)(=O)N2CCCCC2COCC(=O)N2CCN(CCC#N)CC2)c(C)c1 (stereo not drawn) [Example 410, 3-(4-(2-((1-(4-methoxy-2,6-dimethylphenylsulfonyl)piperidin-2-yl)methoxy)acetyl)piperazin-1-yl)propanenitrile]",103,102
"CN1CCC(N2CCN(C(=O)COCC3CCCCN3S(=O)(=O)c3ccc(Cl)c4nonc34)CC2)CC1 (stereo not drawn) [Example 154, 2-((1-(7-chlorobenzo[c][1,2,5]oxadiazol-4-ylsulfonyl)piperidin-2-yl)methoxy)-1-(4-(1-methylpiperidin-4-yl)piperazin-1-yl)ethanone]",84.4,83.2
"N#CCCN1CCN(C(=O)COCC2CCCCN2S(=O)(=O)c2c(Cl)cccc2Cl)CC1 (stereo not drawn) [Example 506, 3-(4-(2-((1-(2,6-dichlorophenylsulfonyl)piperidin-2-yl)methoxy)acetyl)piperazin-1-yl)propanenitrile]",98.9,98.3
"COc1cc(C)c(S(=O)(=O)N2CCCCC2COCC(=O)N2CCN(Cc3ccccc3F)CC2)c(C)c1 (stereo not drawn) [Example 387, 1-(4-(2-fluorobenzyl)piperazin-1-yl)-2-((1-(4-methoxy-2,6-dimethylphenylsulfonyl)piperidin-2-yl)methoxy)ethanone]",101,91

# Reference: patent US8435978B2, “Substituted sulfonamide compounds” (Gruenenthal GmbH, priority 2006, dated 2013)
